Laboratory results: PubChem BioAssay (NCI)
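48-hour exposure; five concentrations; linearly interpolated endpoints. Definition used: TGI = concentration required for complete inhibition of growth.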

Legend:
Assay in all cases: NCI anticancer screen, dose series, 48 h
NCI-H23 lung = system: NCI-H23 lung
NCI/ADR-RES ovarian = system: NCI/ADR-RES ovarian
CAKI-1 renal = system: CAKI-1 renal
K-562 leukemia = system: K-562 leukemia
SF-268 CNS = system: SF-268 CNS
SNB-19 CNS = system: SNB-19 CNS
OVCAR-8 ovarian = system: OVCAR-8 ovarian
SNB-75 CNS = system: SNB-75 CNS
A549 NSCLC = system: A549 NSCLC
COLO 205 colon = system: COLO 205 colon
HCT-116 colon = system: HCT-116 colon
OVCAR-4 ovarian = system: OVCAR-4 ovarian
SF-539 CNS = system: SF-539 CNS
NCI-H522 lung = system: NCI-H522 lung
CCRF-CEM leukemia = system: CCRF-CEM leukemia
MDA-MB-435 = system: MDA-MB-435
A498 renal = system: A498 renal
NCI-H460 lung = system: NCI-H460 lung
EKVX NSCLC = system: EKVX NSCLC
IGROV1 ovarian = system: IGROV1 ovarian
PC-3 prostate = system: PC-3 prostate
SN12C renal = system: SN12C renal
TK-10 renal = system: TK-10 renal
SF-295 CNS = system: SF-295 CNS
RPMI-8226 leukemia = system: RPMI-8226 leukemia
T-47D breast = system: T-47D breast
SK-MEL-2 melanoma = system: SK-MEL-2 melanoma
MCF7 breast = system: MCF7 breast
MDA-N = system: MDA-N
HOP-92 NSCLC = system: HOP-92 NSCLC
MALME-3M melanoma = system: MALME-3M melanoma
UACC-62 melanoma = system: UACC-62 melanoma
RXF 393 renal = system: RXF 393 renal
M14 melanoma = system: M14 melanoma
HL-60(TB) leukemia = system: HL-60(TB) leukemia
SR leukemia = system: SR leukemia
OVCAR-3 ovarian = system: OVCAR-3 ovarian
786-0 renal = system: 786-0 renal
ACHN renal = system: ACHN renal
HCT-15 colon = system: HCT-15 colon
SK-MEL-28 melanoma = system: SK-MEL-28 melanoma
HCC-2998 colon = system: HCC-2998 colon
MOLT-4 leukemia = system: MOLT-4 leukemia
UACC-257 melanoma = system: UACC-257 melanoma
HOP-62 NSCLC = system: HOP-62 NSCLC
MDA-MB-231 breast = system: MDA-MB-231 breast
LOX IMVI melanoma = system: LOX IMVI melanoma
HT29 colon = system: HT29 colon
SW-620 colon = system: SW-620 colon
OVCAR-5 ovarian = system: OVCAR-5 ovarian
UO-31 renal = system: UO-31 renal
KM12 colon = system: KM12 colon
BT-549 breast = system: BT-549 breast
DU-145 prostate = system: DU-145 prostate
SK-OV-3 ovarian = system: SK-OV-3 ovarian
U251 CNS = system: U251 CNS
NCI-H226 lung = system: NCI-H226 lung
SK-MEL-5 melanoma = system: SK-MEL-5 melanoma

Compound: C=Cc1ccccc1C1C(C(=O)OCC)=C(C)N=C2OC(C(=O)OC)C(=O)N21 (stereo not given)
- TGI (NCI-H23 lung): > 100 µM
- TGI (NCI/ADR-RES ovarian): > 100 µM
- TGI (CAKI-1 renal): > 100 µM
- TGI (K-562 leukemia): > 100 µM
- TGI (SF-268 CNS): > 100 µM
- TGI (SNB-19 CNS): > 100 µM
- TGI (OVCAR-8 ovarian): > 100 µM
- TGI (SNB-75 CNS): > 100 µM
- TGI (A549 NSCLC): > 100 µM
- TGI (COLO 205 colon): > 100 µM
- TGI (HCT-116 colon): > 100 µM
- TGI (OVCAR-4 ovarian): > 100 µM
- TGI (SF-539 CNS): > 100 µM
- TGI (NCI-H522 lung): > 100 µM
- TGI (CCRF-CEM leukemia): > 100 µM
- TGI (MDA-MB-435): > 100 µM
- TGI (A498 renal): > 100 µM
- TGI (NCI-H460 lung): > 100 µM
- TGI (EKVX NSCLC): > 100 µM
- TGI (IGROV1 ovarian): > 100 µM
- TGI (PC-3 prostate): > 100 µM
- TGI (SN12C renal): > 100 µM
- TGI (TK-10 renal): > 100 µM
- TGI (SF-295 CNS): > 100 µM
- TGI (RPMI-8226 leukemia): > 100 µM
- TGI (T-47D breast): > 100 µM
- TGI (SK-MEL-2 melanoma): > 100 µM
- TGI (MCF7 breast): > 100 µM
- TGI (MDA-N): > 100 µM
- TGI (HOP-92 NSCLC): > 100 µM
- TGI (MALME-3M melanoma): > 100 µM
- TGI (UACC-62 melanoma): > 100 µM
- TGI (RXF 393 renal): > 100 µM
- TGI (M14 melanoma): > 100 µM
- TGI (HL-60(TB) leukemia): > 100 µM
- TGI (SR leukemia): > 100 µM
- TGI (OVCAR-3 ovarian): > 100 µM
- TGI (786-0 renal): > 100 µM
- TGI (ACHN renal): > 100 µM
- TGI (HCT-15 colon): > 100 µM
- TGI (SK-MEL-28 melanoma): > 100 µM
- TGI (HCC-2998 colon): > 100 µM
- TGI (MOLT-4 leukemia): > 100 µM
- TGI (UACC-257 melanoma): > 100 µM
- TGI (HOP-62 NSCLC): > 100 µM
- TGI (MDA-MB-231 breast): > 100 µM
- TGI (LOX IMVI melanoma): > 100 µM
- TGI (HT29 colon): > 100 µM
- TGI (SW-620 colon): > 100 µM
- TGI (OVCAR-5 ovarian): > 100 µM
- TGI (UO-31 renal): > 100 µM
- TGI (KM12 colon): > 100 µM
- TGI (BT-549 breast): > 100 µM
- TGI (DU-145 prostate): > 100 µM
- TGI (SK-OV-3 ovarian): > 100 µM
- TGI (U251 CNS): > 100 µM
- TGI (NCI-H226 lung): > 100 µM
- TGI (SK-MEL-5 melanoma): > 100 µM

Compound: C/C1=C\CC[C@@]2(C)O[C@@H]2C[C@@H]2[C@H](C/C(C)=C/CC1)OC(=O)C21CC1
- TGI (NCI/ADR-RES ovarian): > 100 µM
- TGI (CAKI-1 renal): > 100 µM
- TGI (K-562 leukemia): 66.2 µM
- TGI (SF-268 CNS): > 100 µM
- TGI (SNB-19 CNS): > 100 µM
- TGI (OVCAR-8 ovarian): > 100 µM
- TGI (SNB-75 CNS): > 100 µM
- TGI (A549 NSCLC): > 100 µM
- TGI (COLO 205 colon): > 100 µM
- TGI (HCT-116 colon): > 100 µM
- TGI (SF-539 CNS): > 100 µM
- TGI (CCRF-CEM leukemia): 65.8 µM
- TGI (MDA-MB-435): > 100 µM
- TGI (A498 renal): > 100 µM
- TGI (NCI-H460 lung): > 100 µM
- TGI (EKVX NSCLC): > 100 µM
- TGI (IGROV1 ovarian): 72.7 µM
- TGI (PC-3 prostate): > 100 µM
- TGI (SN12C renal): > 100 µM
- TGI (TK-10 renal): > 100 µM
- TGI (SF-295 CNS): > 100 µM
- TGI (RPMI-8226 leukemia): 46.3 µM
- TGI (T-47D breast): > 100 µM
- TGI (SK-MEL-2 melanoma): > 100 µM
- TGI (MCF7 breast): > 100 µM
- TGI (MDA-N): > 100 µM
- TGI (MALME-3M melanoma): > 100 µM
- TGI (UACC-62 melanoma): > 100 µM
- TGI (RXF 393 renal): > 100 µM
- TGI (M14 melanoma): > 100 µM
- TGI (HL-60(TB) leukemia): 93.7 µM
- TGI (SR leukemia): 48 µM
- TGI (OVCAR-3 ovarian): > 100 µM
- TGI (786-0 renal): > 100 µM
- TGI (ACHN renal): > 100 µM
- TGI (HCT-15 colon): > 100 µM
- TGI (SK-MEL-28 melanoma): > 100 µM
- TGI (HCC-2998 colon): > 100 µM
- TGI (MOLT-4 leukemia): 61.2 µM
- TGI (UACC-257 melanoma): > 100 µM
- TGI (HOP-62 NSCLC): > 100 µM
- TGI (MDA-MB-231 breast): > 100 µM
- TGI (HT29 colon): > 100 µM
- TGI (SW-620 colon): > 100 µM
- TGI (OVCAR-5 ovarian): > 100 µM
- TGI (UO-31 renal): > 100 µM
- TGI (KM12 colon): > 100 µM
- TGI (BT-549 breast): > 100 µM
- TGI (DU-145 prostate): > 100 µM
- TGI (SK-OV-3 ovarian): > 100 µM
- TGI (U251 CNS): > 100 µM
- TGI (SK-MEL-5 melanoma): > 100 µM
